Results: PMC11638703 (RSC Advances, 2024)
Where two headings read alike, the source gives them in different places. Values belong to the compound of their own block, whether it stands above or below them.

What was measured:
MCF-7 cells = experiment: Cytotoxicity, MTT assay, MCF-7 cells; format: cell-based, human; settings: from MCF-7 IC50
HepG2 cells [1] = experiment: Cytotoxicity, MTT assay, HepG2 cells; format: cell-based; settings: for LLE (lipophilic efficiency): from HepG2 IC50
PIM-1 kinase [2] = target: T1, PIM-1 kinase (Homo sapiens, UniProt P11309); experiment: PIM-1 kinase inhibitory assay; format: biochemical
T1 sequence (P11309 whole entry): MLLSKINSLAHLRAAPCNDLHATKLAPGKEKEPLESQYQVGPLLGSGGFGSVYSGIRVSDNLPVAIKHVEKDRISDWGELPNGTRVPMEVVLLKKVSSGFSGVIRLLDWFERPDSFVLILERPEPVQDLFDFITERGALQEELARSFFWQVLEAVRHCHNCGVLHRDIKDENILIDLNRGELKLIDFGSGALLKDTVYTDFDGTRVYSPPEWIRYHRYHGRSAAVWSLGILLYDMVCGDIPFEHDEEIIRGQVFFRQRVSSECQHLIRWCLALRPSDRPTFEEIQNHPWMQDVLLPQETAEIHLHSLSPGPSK

THLE2 cells = experiment: Cytotoxicity, MTT assay, normal THLE2 cells; format: cell-based
HepG2 cells [3] = experiment: Annexin V/PI staining flow cytometry; format: cell-based; settings: HepG2, IC50 dose, 48 h
caspase 9 = experiment: Caspase 9 level by ELISA in treated HepG2 cells; format: cell-based, human; settings: HepG2 treated at IC50 dose
caspase 3 = experiment: Caspase 3 level by ELISA in treated HepG2 cells; format: cell-based, human; settings: HepG2 treated at IC50 dose, 48 h, control 4.01
caspase 8 = experiment: Caspase 8 level by ELISA in treated HepG2 cells; format: cell-based, human; settings: HepG2 treated at IC50 dose, 48 h, control 55.01
PIM-1 kinase [4] = target: T1, PIM-1 kinase; settings: previously synthesized compound; ref [40]; cited from earlier work

% of PIM-1 inhibition (PIM-1 kinase [2]): 83.4 ± 2.3% | IC50 (PIM-1 kinase [2]): 64.6 ± 0.2 nM
Compound: CCOC(=O)Cn1c(-c2ccc(Cl)cc2)cc(-c2ccc(O)c(OC)c2)c(C#N)c1=O [Compound 5, Ethyl 2-(6-(4-chlorophenyl)-3-cyano-4-(4-hydroxy-3-methoxyphenyl)-2-oxopyridin-1(2H)-yl)acetate]
LLE (lipophilic efficiency) (MCF-7 cells): 2.65 | LLE (lipophilic efficiency) (HepG2 cells [1]): 2.93

Compound: COc1cc(-c2cc(-c3ccc(Cl)cc3)n(CN(C)C)c(=O)c2C#N)ccc1O [Compound 8, 6-(4-Chlorophenyl)-1-((dimethylamino)methyl)-4-(4-hydroxy-3-methoxyphenyl)-2-oxo-1,2-dihydropyridine-3-carbonitrile]
LLE (lipophilic efficiency) (MCF-7 cells): 2.97 | LLE (lipophilic efficiency) (HepG2 cells [1]): 2.76

Compound: COc1cc(-c2cc(-c3ccc(Cl)cc3)n(CC(=O)NN)c(=O)c2C#N)ccc1O [Compound 9, 2-(6-(4-Chlorophenyl)-3-cyano-4-(4-hydroxy-3-methoxyphenyl)-2-oxopyridin-1(2H)-yl)acetohydrazide]
maximum cell growth inhibition (THLE2 cells): 13% | early apoptosis (HepG2 cells [3]): 15.2% | late apoptosis (HepG2 cells [3]): 37.5% | necrosis cell death (HepG2 cells [3]): failed to enhance necrosis cell death | total apoptotic cell death vs untreated control (HepG2 cells [3]): 175 times | total apoptosis (HepG2 cells [3]; untreated 0.30%): 52.7% | LLE (lipophilic efficiency) (MCF-7 cells): 5.41 | selectivity for caspase-9 compared to caspase-3 and caspase-8 (caspase 9): ~2.6 fold | Concentration Caspase 9 (caspase 9; 48 h, ELISA, control 43.33): 112.6 ng/mL | Concentration Caspase 3 (caspase 3): 9.8 ng/mL | percentage of cell growth (inhibition) (HepG2 cells [1]; HepG2, maximal concentration): 94% | LLE (lipophilic efficiency) (HepG2 cells [1]): 5.60 | % of PIM-1 inhibition (PIM-1 kinase [2]): 98.8 ± 1.9% | IC50 (PIM-1 kinase [2]): 8.4 ± 0.2 nM | Concentration Caspase 8 (caspase 8): 74.4 ng/mL

% of PIM-1 inhibition (PIM-1 kinase [2]): 87.6 ± 3.2% | IC50 (PIM-1 kinase [2]): 34.6 ± 0.12 nM
Compound: COc1cc(-c2cc(-c3ccc(Cl)cc3)n(CC(=O)n3nc(C)cc3C)c(=O)c2C#N)ccc1O [Compound 10, 6-(4-Chlorophenyl)-1-(2-(3,5-dimethyl-1H-pyrazol-1-yl)-2-oxoethyl)-4-(4-hydroxy-3-methoxyphenyl)-2-oxo-1,2-dihydropyridine-3-carbonitrile]

Compound: N#Cc1cnc2ncncc2c1 [Pyrido[2,3-d] pyrimidine-6-carbonitrile]
% of PIM-1 inhibition (PIM-1 kinase [4]): 97.8 ± 1.8%
